We go through 5 compounds from US12252524B2, “GIP/GLP1 co-agonist compounds” (Eli Lilly and Company, priority 2018, dated 2025).

A word on the EC50: it is the concentration at which the effect is half-maximal.

Numbered stars: 1 amine (or outer) side, 2 acyl side, 3 side chain; on linkers, the order of the positions; unused ones are H or OH. Square brackets hold non-standard residues; d marks the D form. Side chains are listed from the residue outwards. Peptide text beside a SMILES is read from it. * marks the point of attachment. C20 diacid = O=C(O)CCCCCCCCCCCCCCCCCCC(=O)*; C18 diacid = O=C(O)CCCCCCCCCCCCCCCCC(=O)*; αMePhe(2-F) = C[C@](N)(Cc1ccccc1F)C(=O)O; γGlu = O=C(O)[C@H](CCC(=O)[*:2])N[*:1]; αMeY = C[C@](N)(Cc1ccc(O)cc1)C(=O)O; αMeF = C[C@](N)(Cc1ccccc1)C(=O)O; 4Pal = N[C@@H](Cc1ccncc1)C(=O)O; αMeL = CC(C)C[C@](C)(N)C(=O)O; αMeP = C[C@@]1(C(=O)O)CCCN1; Orn = NCCC[C@H](N)C(=O)O; Dab = NCC[C@H](N)C(=O)O; AEEA = NCCOCCOCC(=O)O; Aib = CC(C)(N)C(=O)O

The target in experiment [1] is T1, gastric inhibitory peptide receptor (GIPR) (Homo sapiens, UniProt P48546).
T1 sequence (P48546 22-466): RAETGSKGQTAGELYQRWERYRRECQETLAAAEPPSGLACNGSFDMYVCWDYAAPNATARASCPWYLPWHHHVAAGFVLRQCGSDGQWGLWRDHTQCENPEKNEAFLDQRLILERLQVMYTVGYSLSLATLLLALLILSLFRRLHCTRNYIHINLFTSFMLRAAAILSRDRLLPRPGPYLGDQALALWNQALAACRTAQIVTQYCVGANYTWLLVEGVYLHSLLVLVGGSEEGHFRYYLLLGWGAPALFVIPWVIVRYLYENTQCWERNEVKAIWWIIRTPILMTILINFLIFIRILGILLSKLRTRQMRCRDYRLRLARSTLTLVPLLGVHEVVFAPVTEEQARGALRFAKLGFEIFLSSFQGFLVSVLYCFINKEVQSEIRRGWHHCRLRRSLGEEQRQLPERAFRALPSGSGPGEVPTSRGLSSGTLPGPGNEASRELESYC
The experiment in a line: cAMP pharmacological functional assay in presence of casein, hGIPR. It is filed as cell-based. Particulars: HEK293 cells expressing hGIPR, 0.1% Casein, geometric mean; read-out: hGIPR cAMP Rel EC50 nM (SEM, n).

In experiment [2] the target is human GLP-1 receptor (GLP-1R) (Homo sapiens, UniProt P43220). In words: cAMP pharmacological functional assay in presence of casein, hGLP-1R. As to conditions: HEK293 cells expressing hGLP-1R, 0.1% Casein, geometric mean; read-out: hGLP1R cAMP Rel EC50 nM (SEM, n). The experiment is classed as cell-based.
Sequence of human GLP-1 receptor (GLP-1R) (P43220 24-463): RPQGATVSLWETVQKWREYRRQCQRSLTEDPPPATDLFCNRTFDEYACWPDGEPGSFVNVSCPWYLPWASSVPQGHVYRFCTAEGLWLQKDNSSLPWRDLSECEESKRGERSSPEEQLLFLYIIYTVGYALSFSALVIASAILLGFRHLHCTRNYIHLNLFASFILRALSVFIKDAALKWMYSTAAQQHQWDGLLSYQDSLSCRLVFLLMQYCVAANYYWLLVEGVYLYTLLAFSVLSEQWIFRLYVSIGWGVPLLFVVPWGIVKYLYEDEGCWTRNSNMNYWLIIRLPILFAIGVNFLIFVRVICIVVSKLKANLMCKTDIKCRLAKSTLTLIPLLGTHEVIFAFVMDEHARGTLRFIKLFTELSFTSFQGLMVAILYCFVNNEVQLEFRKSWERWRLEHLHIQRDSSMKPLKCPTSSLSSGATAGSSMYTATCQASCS

Consider `CC[C@H](C)[C@H](NC(=O)[C@H](CC(C)C)NC(=O)[C@](C)(Cc1ccc(O)cc1)NC(=O)[C@@H](CCC(=O)O)NC(=O)[C@@H](NC(=O)[C@H](Cc1ccccc1)NC(=O)[C@H](CCC(=O)O)NC(=O)C(C)(C)NC(=O)[C@H](CCC(N)=O)NC(=O)[C@H](C)NC(=O)[C@H](CCCCN)NC(=O)[C@H](CCCN)NC(=O)[C@H](CC(=O)O)NC(=O)[C@H](CC(C)C)NC(=O)[C@](C)(CC(C)C)NC(=O)[C@@H](NC(=O)[C@H](CO)NC(=O)[C@H](Cc1ccncc1)NC(=O)[C@H](CC(=O)O)NC(=O)[C@H](CO)NC(=O)[C@@H](NC(=O)[C@](C)(Cc1ccccc1F)NC(=O)[C@@H](NC(=O)CNC(=O)[C@H](CCC(=O)O)NC(=O)C(C)(C)NC(=O)[C@@H](N)Cc1ccc(O)cc1)[C@@H](C)O)[C@@H](C)O)[C@@H](C)CC)[C@@H](C)CC)C(=O)N[C@@H](CCC(=O)O)C(=O)NCC(=O)NCC(=O)N1CCC[C@H]1C(=O)N[C@@H](CO)C(=O)N[C@@H](CO)C(=O)NCC(=O)N[C@@H](C)C(=O)N1CCC[C@H]1C(=O)N1CCC[C@H]1C(=O)N1CCC[C@H]1C(=O)N[C@@H](CO)C(=O)N[C@@H](CS)C(N)=O` [Example 286] (H-Y[Aib]EGT[αMePhe(2-F)]TSD[4Pal]SI[αMeL]LD[Orn]KAQ[Aib]EFI[dE][αMeY]LIEGGPSSGAPPPSC-NH2), for which the results for the EC50 in experiment [1] and in experiment [2] were 0.184 nM and 0.0602 nM, respectively.
For `CC[C@H](C)[C@H](NC(=O)[C@H](CC(C)C)NC(=O)[C@H](Cc1ccc(O)cc1)NC(=O)[C@H](CCC(=O)O)NC(=O)[C@@H](NC(=O)[C@H](Cc1ccccc1)NC(=O)[C@@H](NC(=O)C(C)(C)NC(=O)[C@H](CCC(N)=O)NC(=O)[C@H](C)NC(=O)[C@H](CCCCNC(=O)COCCOCCNC(=O)COCCOCCNC(=O)CC[C@H](NC(=O)CCCCCCCCCCCCCCCCCCC(=O)O)C(=O)O)NC(=O)[C@H](CCCCN)NC(=O)[C@H](CC(=O)O)NC(=O)[C@H](CC(C)C)NC(=O)[C@](C)(CC(C)C)NC(=O)[C@@H](NC(=O)[C@H](CO)NC(=O)[C@H](Cc1ccc(O)cc1)NC(=O)[C@H](CC(=O)O)NC(=O)[C@H](CO)NC(=O)[C@@H](NC(=O)[C@](C)(Cc1ccccc1)NC(=O)[C@@H](NC(=O)CNC(=O)[C@H](CCC(=O)O)NC(=O)C(C)(C)NC(=O)[C@@H](N)Cc1ccc(O)cc1)[C@@H](C)O)[C@@H](C)O)[C@@H](C)CC)[C@@H](C)CC)[C@@H](C)CC)C(=O)N[C@@H](CCC(=O)O)C(=O)NCC(=O)NCC(=O)N1CCC[C@H]1C(=O)N[C@@H](CO)C(=O)N[C@@H](CO)C(=O)NCC(=O)N[C@@H](C)C(=O)N1CCC[C@H]1C(=O)N1CCC[C@H]1C(=O)N1CCC[C@H]1C(=O)N[C@@H](CO)C(N)=O` [Example 141] (H-Y[Aib]EGT[αMeF]TSDYSI[αMeL]LDKK([AEEA-AEEA-γGlu-C20 diacid])AQ[Aib]IFIEYLIEGGPSSGAPPPS-NH2; N-terminus assumed) the same measures were 0.2 nM and 0.0975 nM.
For `CC[C@H](C)[C@H](NC(=O)[C@H](CC(C)C)NC(=O)[C@H](Cc1ccc(O)cc1)NC(=O)[C@@H](CCC(=O)O)NC(=O)[C@@H](NC(=O)[C@H](Cc1ccccc1)NC(=O)[C@@H](NC(=O)C(C)(C)NC(=O)[C@H](CCC(N)=O)NC(=O)[C@H](C)NC(=O)[C@H](CCCCNC(=O)COCCOCCNC(=O)COCCOCCNC(=O)CC[C@H](NC(=O)CCCCCCCCCCCCCCCCCCC(=O)O)C(=O)O)NC(=O)[C@H](CCN)NC(=O)[C@H](CC(=O)O)NC(=O)[C@H](CC(C)C)NC(=O)[C@](C)(CC(C)C)NC(=O)[C@@H](NC(=O)[C@H](CO)NC(=O)[C@H](Cc1c[nH]cn1)NC(=O)[C@H](CC(=O)O)NC(=O)[C@H](CO)NC(=O)[C@@H](NC(=O)[C@](C)(Cc1ccccc1F)NC(=O)[C@@H](NC(=O)CNC(=O)[C@H](CCC(=O)O)NC(=O)C(C)(C)NC(=O)[C@@H](N)Cc1ccc(O)cc1)[C@@H](C)O)[C@@H](C)O)[C@@H](C)CC)[C@@H](C)O)[C@@H](C)CC)C(=O)N[C@@H](CCC(=O)O)C(=O)NCC(=O)NCC(=O)N1CCC[C@H]1C(=O)N[C@@H](CO)C(=O)N[C@@H](CO)C(=O)NCC(=O)N[C@@H](C)C(=O)N1CCC[C@H]1C(=O)N1CCC[C@H]1C(=O)N1CCC[C@H]1C(=O)N[C@@H](CO)C(N)=O` [Example 172] (H-Y[Aib]EGT[αMePhe(2-F)]TSDHSI[αMeL]LD[Dab]K([AEEA-AEEA-γGlu-C20 diacid])AQ[Aib]TFI[dE]YLIEGGPSSGAPPPS-NH2; N-terminus assumed), in that order: 1.05 nM and 1.2 nM.
For `CC[C@H](C)[C@H](NC(=O)[C@H](CC(C)C)NC(=O)[C@H](Cc1ccc(O)cc1)NC(=O)[C@H](CCC(=O)O)NC(=O)[C@@H](NC(=O)[C@H](Cc1ccccc1)NC(=O)[C@H](C)NC(=O)[C@H](Cc1c[nH]cn1)NC(=O)[C@H](CCC(N)=O)NC(=O)[C@H](C)NC(=O)[C@H](CCCCNC(=O)COCCOCCNC(=O)COCCOCCNC(=O)CC[C@H](NC(=O)CCCCCCCCCCCCCCCCCCC(=O)O)C(=O)O)NC(=O)[C@H](CCC(=O)O)NC(=O)[C@H](CC(=O)O)NC(=O)[C@H](CC(C)C)NC(=O)[C@H](CC(C)C)NC(=O)[C@@H](NC(=O)[C@H](CO)NC(=O)[C@H](Cc1ccc(O)cc1)NC(=O)[C@H](CC(=O)O)NC(=O)[C@H](CO)NC(=O)[C@@H](NC(=O)[C@H](Cc1ccccc1)NC(=O)[C@@H](NC(=O)CNC(=O)[C@H](CCC(=O)O)NC(=O)[C@]1(C)CCCN1C(=O)[C@@H](N)Cc1ccc(O)cc1)[C@@H](C)O)[C@@H](C)O)[C@@H](C)CC)[C@@H](C)CC)C(=O)N[C@@H](CCC(=O)O)C(=O)NCC(=O)NCC(=O)N1CCC[C@H]1C(=O)N[C@@H](CO)C(=O)N[C@@H](CO)C(=O)NCC(=O)N[C@@H](C)C(=O)N1CCC[C@H]1C(=O)N1CCC[C@H]1C(=O)N1CCC[C@H]1C(=O)N[C@@H](CO)C(N)=O` [Example 194] (H-Y[αMeP]EGTFTSDYSILLDEK([AEEA-AEEA-γGlu-C20 diacid])AQHAFIEYLIEGGPSSGAPPPS-NH2; N-terminus assumed), in that order: 0.423 nM and 0.284 nM.
Turning to `CC[C@H](C)[C@H](NC(=O)[C@H](CC(C)C)NC(=O)[C@](C)(Cc1ccc(O)cc1)NC(=O)[C@@H](CCC(=O)O)NC(=O)[C@@H](NC(=O)[C@H](Cc1ccccc1)NC(=O)[C@@H](NC(=O)C(C)(C)NC(=O)[C@H](CCC(N)=O)NC(=O)[C@H](C)NC(=O)[C@H](CCCCNC(=O)COCCOCCNC(=O)COCCOCCNC(=O)CC[C@H](NC(=O)CCCCCCCCCCCCCCCCC(=O)O)C(=O)O)NC(=O)[C@H](CCCN)NC(=O)[C@H](CC(=O)O)NC(=O)[C@H](CC(C)C)NC(=O)[C@](C)(CC(C)C)NC(=O)[C@@H](NC(=O)[C@H](CO)NC(=O)[C@H](C)NC(=O)[C@H](CC(=O)O)NC(=O)[C@H](CO)NC(=O)[C@@H](NC(=O)[C@](C)(Cc1ccccc1F)NC(=O)[C@@H](NC(=O)CNC(=O)[C@H](CCC(=O)O)NC(=O)C(C)(C)NC(=O)[C@@H](N)Cc1ccc(O)cc1)[C@@H](C)O)[C@@H](C)O)[C@@H](C)CC)[C@@H](C)O)[C@@H](C)CC)C(=O)N[C@@H](CCC(=O)O)C(=O)NCC(=O)NCC(=O)N1CCC[C@H]1C(=O)N[C@@H](CO)C(=O)N[C@@H](CO)C(=O)NCC(=O)N[C@@H](C)C(=O)N1CCC[C@H]1C(=O)N1CCC[C@H]1C(=O)N1CCC[C@H]1C(=O)N[C@@H](CO)C(N)=O` [Example 245] (H-Y[Aib]EGT[αMePhe(2-F)]TSDASI[αMeL]LD[Orn]K([AEEA-AEEA-γGlu-C18 diacid])AQ[Aib]TFI[dE][αMeY]LIEGGPSSGAPPPS-NH2), the EC50 is 0.0552 nM in experiment [1] and 0.0222 nM in experiment [2].
